The source made the active and inactive calls. No cut-off for these calls is given here.
Experiments:
Assay type in all cases: functional
[1] = Antiplatelet activity in human platelet rich plasma assessed as inhibition of arachidonic acid-induced platelet aggregation preincubated for 3 mins before arachidonic acid challenge by turbidimetric method
[2] = system: Platelet; test: (§1) Antiplatelet activity in human platelet rich plasma assessed as inhibition of ADP-induced platelet aggregation at 10 uM preincubated for 3 mins before ADP challenge by turbidimetric method
[3] = Antiplatelet activity in human platelet rich plasma assessed as inhibition of collagen-induced platelet aggregation at 10 uM preincubated for 3 mins before collagen challenge by turbidimetric method
[4] = (§2) Antiplatelet activity in human platelet rich plasma assessed as inhibition of arachidonic acid-induced platelet aggregation at 10 uM preincubated for 3 mins before arachidonic acid challenge by turbidimetric method
[5] = system: Platelet; test: (§3) Antiplatelet activity in human platelet rich plasma assessed as inhibition of arachidonic acid-induced platelet aggregation at 1 uM preincubated for 3 mins before arachidonic acid challenge by turbidimetric method
[6] = as §3
[7] = Antiplatelet activity in human platelet rich plasma assessed as inhibition of collagen-induced platelet aggregation at 1 uM preincubated for 3 mins before collagen challenge by turbidimetric method
[8] = as §1
[9] = system: Platelet; test: as §2
[10] = Antiplatelet activity in human platelet rich plasma assessed as inhibition of arachidonic acid-induced platelet aggregation at 100 uM preincubated for 3 mins before arachidonic acid challenge by turbidimetric method

IC50 [1] | SMILES | inhibition at 10 µM [3] | inhibition at 10 µM [4] | inhibition at 1 µM [6] | further results
18400 nM | COc1ccc(-c2onc(C(=O)N3CCOCC3)c2-c2ccc(Cl)cc2)cc1 |  |  |  | 
7.3 nM | COc1ccc(-n2nc(C(=O)N3CCOCC3)cc2-c2ccc(Cl)cc2)cc1 |  |  |  | 
1080 nM | COc1ccc(-n2nc(CCC(=O)N3CCOCC3)cc2-c2ccc(Cl)cc2)nn1 |  |  |  | 
> 10000 nM | O=C(c1cc(-c2ccc(Cl)cc2)n[nH]1)N1CCCCC1 |  |  |  | 
 | COc1ccc(-n2nc(C(=O)Oc3ccc(C4CCCC4)cc3)cc2-c2ccc(Cl)cc2)nn1 | 19.9% | 86.7% |  | inhibition [2]: inactive; inhibition [5]: inactive
> 10000 nM | O=C(c1cc(-c2ccc(Cl)cc2)n[nH]1)N1CCOCC1 |  |  |  | 
 | COc1ccc(-n2nc(C(=O)Oc3ccc(C)cc3)cc2-c2ccc(Cl)cc2)nn1 | 48.5% | 95% | 23.6% | inhibition [2]: inactive
110 nM | COc1ccc(-n2nc(C(=O)Nc3ccncc3)cc2-c2ccc(Cl)cc2)nn1 | 73.6% | 80.5% | 84.9% | inhibition at 1 µM [7]: 77.6%; inhibition at 10 µM [8]: 8.14%
1620 nM | COc1ccc2c(c1)c(CC(=O)O)c(C)n2C(=O)c1ccc(Cl)cc1 [INDOMETHACIN] |  |  |  | 
4670 nM | COc1ccc(-n2nc(C(=O)N3CCN(c4ccc(C)cc4)CC3)cc2-c2ccc(Cl)cc2)nn1 | 20.1% | 97.6% | 3.96% | inhibition [2]: inactive
 | COc1ccc(-n2nc(C(=O)Oc3cccnc3Cl)cc2-c2ccc(Cl)cc2)nn1 | 8.49% | 86.5% |  | inhibition [2]: inactive; inhibition [5]: inactive
19600 nM | CS(=O)(=O)c1ccc(-n2nc(C(=O)N3CCCCC3)cc2-c2ccc(Cl)cc2)nn1 |  |  |  | 
> 10000 nM | COc1ccc(-n2nc(C(=O)N3CCCCC3)cc2C)nn1 |  |  |  | 
2090 nM | O=C(c1cc(-c2ccc(Cl)cc2)n(-c2ccc(=O)[nH]n2)n1)N1CCCCC1 |  |  |  | 
> 10000 nM | COc1ccc(-n2nc(C(=O)N3CCOCC3)cc2C)nn1 |  |  |  | 
7.9 nM | COc1ccc(-n2nc(C(=O)N3CCCCC3)cc2-c2ccc(Cl)cc2)cc1 |  |  |  | 
83 nM | COc1ccc(-n2nc(C(=O)N3CCOCC3)cc2-c2ccc(Cl)cc2)nn1 | 70.9% | 94.8% | 92.7% | inhibition at 1 µM [7]: 74.2%; inhibition at 10 µM [8]: 11.3%
610 nM | COc1ccc(-n2nc(C(=O)Nc3ccc(Cl)cc3)cc2-c2ccc(Cl)cc2)nn1 | 70.5% | 74.3% | 80.9% | inhibition at 1 µM [7]: 25.7%; inhibition at 10 µM [8]: 7.93%
 | COc1ccc(-n2nc(C(=O)Oc3ccc(-n4ccnc4)cc3)cc2-c2ccc(Cl)cc2)nn1 | 2.11% | 90% | 5.25% | inhibition [2]: inactive
41 nM | COc1ccc(-n2nc(C(=O)N3CCCCC3)cc2-c2ccc(Cl)cc2)nn1 | 71.1% | 94.8% | 92.9% | inhibition at 1 µM [7]: 76.8%; inhibition [2]: inactive

IC50 [1] | SMILES | inhibition at 10 µM [3] | inhibition at 10 µM [4] | inhibition at 1 µM [6] | further results
 | COc1ccc(-n2nc(C(=O)Oc3cccc(C(C)C)c3)cc2-c2ccc(Cl)cc2)nn1 | 42.3% | 84% | 8.97% | inhibition [2]: inactive
920 nM | COc1ccc(-n2nc(CCC(=O)N3CCCCC3)cc2-c2ccc(Cl)cc2)nn1 |  |  |  | 
5.7 nM | COc1ccc(-n2nc(C(=O)N3CCCC3)cc2-c2ccc(Cl)cc2)cc1 |  |  |  | 
7760 nM | CC(=O)Oc1ccccc1C(=O)O [ASPIRIN] |  |  |  | 
400 nM | COc1ccc(NC(=O)c2cc(-c3ccc(Cl)cc3)n(-c3ccc(OC)nn3)n2)cc1 | 72.1% | 79.9% | 94.2% | inhibition at 1 µM [7]: 43.6%; inhibition at 10 µM [8]: 3.92%
> 20000 nM | CS(=O)(=O)c1ccc(-n2nc(C(=O)N3CCOCC3)cc2-c2ccc(Cl)cc2)nn1 |  |  |  | 
> 10000 nM | Cn1nc(-c2ccc(Cl)cc2)cc1C(=O)N1CCCCC1 |  |  |  | 
5030 nM | COc1ccc(-c2onc(C(=O)N3CCCCC3)c2-c2ccc(Cl)cc2)cc1 |  |  |  | 
5490 nM | COc1ccc(-n2nc(C(=O)N3CCN(c4ccc(C(F)(F)F)cn4)CC3)cc2-c2ccc(Cl)cc2)nn1 | 16% | 65.5% | 10.9% | inhibition at 10 µM [8]: 6.8%
 | COc1ccc(-n2nc(C(=O)N3CCN(c4ncccn4)CC3)cc2-c2ccc(Cl)cc2)nn1 | 22.9% |  |  | inhibition at 10 µM [8]: 2.7%; inhibition [9]: inactive; inhibition [5]: inactive
> 10000 nM | Cn1nc(-c2ccc(Cl)cc2)cc1C(=O)N1CCOCC1 |  |  |  | 
 | COc1ccc(OC(=O)c2cc(-c3ccc(Cl)cc3)n(-c3ccc(OC)nn3)n2)cc1 | 24.2% | 84.2% | 6.05% | inhibition [2]: inactive
 | COc1ccc(-n2nc(C(=O)N3CCN(c4ccc(F)cc4)CC3)cc2-c2ccc(Cl)cc2)nn1 | 32.2% | 79.7% |  | inhibition [2]: inactive; inhibition [5]: inactive
 | CCOC(=O)c1cc(-c2ccc(Cl)cc2)n(-c2ccc(Cl)nn2)n1 |  |  |  | inhibition at 100 µM [10]: 67%
12600 nM | O=C(c1cc(-c2ccc(Cl)cc2)n(-c2ccc(=O)[nH]n2)n1)N1CCOCC1 |  |  |  | 
 | CCCOc1ccc(OC(=O)c2cc(-c3ccc(Cl)cc3)n(-c3ccc(OC)nn3)n2)cc1 | 61.9% | 93% | 3.87% | inhibition at 1 µM [7]: 32.2%; inhibition [2]: inactive
15 nM | COc1ccc(-n2nc(C(=O)N3CCCC3)cc2-c2ccc(Cl)cc2)nn1 |  |  |  | 
 | COc1ccc(-n2nc(C(=O)Oc3ccc4ccccc4c3)cc2-c2ccc(Cl)cc2)nn1 | 22.4% | 86.3% | 2.36% | inhibition at 10 µM [8]: 3.34%
1330 nM | COc1ccc(-n2nc(C(=O)OCCC(C)C)cc2-c2ccc(Cl)cc2)nn1 | 66.7% | 91.2% | 19% | inhibition at 1 µM [7]: 34.2%; inhibition at 10 µM [8]: 6.77%
